Numbered stars: 1 amine (or outer) side, 2 acyl side, 3 side chain; on linkers, the order of the positions; unused ones are H or OH. Square brackets hold non-standard residues; d marks the D form. Side chains are listed from the residue outwards. Peptide text beside a SMILES is read from it. * marks the point of attachment. C18 diacid = O=C(O)CCCCCCCCCCCCCCCCC(=O)*; γGlu = O=C(O)[C@H](CCC(=O)[*:2])N[*:1]; Aib = CC(C)(N)C(=O)O
Key:
[1] = biological target: T1, Mouse GCGR (Mus musculus, UniProt Q61606); experiment: Receptor binding, SPA competitive binding assay; details: SPA competitive binding on BHK cell membranes, [125I]-glucagon tracer, 1% species specific plasma, 2 h 30°C; value (95% CI)
T1 construct: a plasmid encoding either the glucagon receptor or the GLP-1 receptor from the relevant species; expressed in transfected cells

[2] = biological target: T1, Mouse GCGR; experiment: Receptor potency, CRE-luciferase functional assay in BHK cells; type: cell-based; details: Mouse receptors, whole BHK cells, 3 h 37°C, value (95% CI)
Protocol: (§1) The binding assay was performed on cell membranes in the presence of 1% (v/v) species-specific heparin-treated pooled plasma (Bioreclamation IVT, Westbury, NY) diluted in assay buffer (50 mM HEPES supplemented with 5 mM EGTA, 5 mM MgCl2, and 0.005% (v/v) Tween 20, pH7.4). […] Cells stably expressing an individual receptor of interest were grown at 5% CO2, 37°C in DMEM (supplemented with 10% FCS, 0.5 mg/ml G418 and 0.3 mg/ml hygromycin). Membrane preparations were made from cells harvested at approximately 80% confluence, washed and homogenized in 20 mM HEPES with 0.1 mM EDTA, pH 7.4. Protein concentration was determined, and the membranes were stored at -80°C until use. The membrane binding assay was performed in a 96-well OptiPlate (PerkinElmer) in a total volume of 200 μl. Test compounds were dissolved in 80% DMSO and further diluted in assay buffer. 50 μl of diluted plasma was added to the assay plate wells followed by addition of test compounds (25 μl), cell membranes (50 μl, 0.06 mg/ml), SPA beads (20 mg/ml in assay buffer) and radioligand (60,000 cpm/well, corresponding to 0.06 nM; 2200 Ci/mmol. Each assay plate was incubated for 2 h at 30°C, centrifuged at 1500 rpm for 10 minutes and counted in a TopCount NXT instrument (PerkinElmer).
(§2) Functional assays were performed on whole cells in the absence or presence of 100% species-specific heparin-treated pooled plasma (Bioreclamation IVT). […] The cells were cultured with DMEM (supplemented with GlutaMAX, 10% FBS, 0.5 mg/ml G418 and 0.3 mg/ml hygromycin) at 5% CO2 and 37°C. At approximately 80–90% confluence, cells were washed with PBS and harvested with Versene (Life Technologies, Carlsbad, CA). The cells were counted and plated into 96-well microtiter plates coated with poly-D-Lys (Corning BioCoat) with 5,000 cells/well and thereafter incubated overnight in growth media. The next day the media was changed to assay buffer (DMEM without phenol red, supplemented with GlutaMAX, 10 mM HEPES, 1% ovalbumin and 0.1% Pluronic F-68) or to 100% plasma. In the absence of plasma, compounds were diluted in assay buffer. In assays tested with plasma, compounds were diluted in pure plasma. Buffer was removed from the plates and 50 μl of test compound dilutions was added to the plates followed by 50 μl of plasma or the same buffer used for compound dilution. The assay plates were incubated for 3 h in a 5% CO2 incubator at 37°C. The plates were then transferred to room temperature for 15 min and 100 μl Steadylite Plus reagent (PerkinElmer) was added to each well. The plates were shaken for 30 min at room temperature while protected from light after which luminescence was measured.
(§3) For the receptor binding assays, logIC50 values were calculated using non-linear regression analysis. The error estimation was reported as the 95% confidence interval. […] The calculations were performed in GraphPad Prism 6.4 (GraphPad, San Diego, CA) and error estimation was expressed as the 95% confidence interval. […] Averages, error estimation, ratios and plasma shifts were all calculated on logIC50 or logEC50 values and transformed to the anti-log values for reporting purposes.

[3] = biological target: T2, Mouse GLP-1R (Mus musculus, UniProt O35659); experiment: as above; type: cell-based; details: GLP-1R EC50, pM (95% CI) 100% plasma, Mouse receptors, whole BHK cells, 100% species-specific plasma, 3 h 37°C, value (95% CI)
T2 construct: a plasmid encoding either the glucagon receptor or the GLP-1 receptor from the relevant species; expressed in transfected cells
T2 sequence (O35659 22-463): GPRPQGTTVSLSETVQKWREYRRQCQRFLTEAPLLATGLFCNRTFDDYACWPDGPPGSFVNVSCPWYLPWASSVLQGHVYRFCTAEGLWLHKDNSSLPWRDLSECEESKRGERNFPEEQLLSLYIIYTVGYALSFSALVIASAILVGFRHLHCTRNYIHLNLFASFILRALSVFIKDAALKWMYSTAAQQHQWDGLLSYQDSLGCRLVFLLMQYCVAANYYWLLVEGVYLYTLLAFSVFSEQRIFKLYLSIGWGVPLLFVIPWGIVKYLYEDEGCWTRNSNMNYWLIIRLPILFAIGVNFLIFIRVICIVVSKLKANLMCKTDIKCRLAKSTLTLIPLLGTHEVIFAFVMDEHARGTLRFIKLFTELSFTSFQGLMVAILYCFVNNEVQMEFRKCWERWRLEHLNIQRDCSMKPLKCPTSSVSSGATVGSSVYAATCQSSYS
Protocol: as §1, §2, §3

[4] = biological target: T3, Rat GCGR (Rattus norvegicus, UniProt P30082); experiment: as above; type: cell-based; details: Rat receptors, whole BHK cells, 0% plasma, 3 h 37°C, value (95% CI)
T3 construct: a plasmid encoding either the glucagon receptor or the GLP-1 receptor from the relevant species; expressed in transfected cells
Protocol: as §1, §2, §3

[5] = tested on: DIO rats; experiment: Subchronic effect on body weight, body composition and food intake in DIO rats; type: in vivo, rat; details: three weeks
Text: Male C57Bl/6J mice were purchased from Jackson Lab (Bar Harbour, ME) or Taconic, (Denmark). Male Sprague Dawley rats were purchased from Taconic (Denmark). Lean animals were fed regular chow diet (Altromin 1324, Brogaarden, Denmark). Obese animals were fed a high-fat diet, 45% kcal from fat (D12492, Research Diets, New Brunswick, NJ) from the age of 4–6 weeks in order to obtain a diet induced obese (DIO) phenotype. Animals were housed under temperature and humidity-controlled conditions in a 12:12 hr light:dark cycle (lights on at 6 a.m.). Rats were housed three per cage during high fat feeding and were single housed five weeks prior to study. Mice were single housed, two per cage, with a partitioning wall where possible. All animals had ad libitum access to diet and water, except when fasted prior to experimental procedures. Animals were acclimatized to study conditions (energy expenditure cages, daily mock handling etc) at least one week prior to first dose. […] At the time of study, animals were 20–30 weeks old with a body weight of 45–50 g (DIO mice) or approximately 600 g (DIO rats). […] Oral glucose tolerance was evaluated on study day 15, 5 h post-dosing (at Cmax). Animals were fasted for 5 h prior to oral administration of glucose (3 g/kg). […] Conscious animals were MR-scanned prior to initiation of treatment and at the end of the treatment period.

T1 sequence (Q61606 27-485): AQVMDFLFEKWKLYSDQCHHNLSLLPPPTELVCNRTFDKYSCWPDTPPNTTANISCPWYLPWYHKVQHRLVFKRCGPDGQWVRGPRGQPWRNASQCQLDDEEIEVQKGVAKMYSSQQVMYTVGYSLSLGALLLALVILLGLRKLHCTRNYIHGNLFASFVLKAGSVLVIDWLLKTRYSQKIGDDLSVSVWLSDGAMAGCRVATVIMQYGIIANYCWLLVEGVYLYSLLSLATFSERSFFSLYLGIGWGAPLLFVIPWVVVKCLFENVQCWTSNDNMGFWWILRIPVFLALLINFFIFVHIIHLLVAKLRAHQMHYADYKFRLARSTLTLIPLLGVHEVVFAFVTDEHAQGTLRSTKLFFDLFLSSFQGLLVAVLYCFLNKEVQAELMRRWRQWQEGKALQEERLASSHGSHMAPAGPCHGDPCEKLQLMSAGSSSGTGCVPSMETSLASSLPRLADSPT
T3 sequence (P30082 27-485): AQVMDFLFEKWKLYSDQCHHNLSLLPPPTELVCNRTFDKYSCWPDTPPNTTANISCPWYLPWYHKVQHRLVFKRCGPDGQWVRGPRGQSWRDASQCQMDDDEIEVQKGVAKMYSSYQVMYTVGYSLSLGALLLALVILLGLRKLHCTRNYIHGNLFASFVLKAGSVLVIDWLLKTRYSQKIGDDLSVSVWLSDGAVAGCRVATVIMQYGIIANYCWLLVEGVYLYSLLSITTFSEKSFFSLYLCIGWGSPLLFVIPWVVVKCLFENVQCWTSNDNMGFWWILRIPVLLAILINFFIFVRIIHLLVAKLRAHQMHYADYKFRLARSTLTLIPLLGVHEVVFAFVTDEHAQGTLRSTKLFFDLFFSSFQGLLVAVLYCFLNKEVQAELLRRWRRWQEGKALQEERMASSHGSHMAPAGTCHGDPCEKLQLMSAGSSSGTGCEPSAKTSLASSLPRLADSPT

IC50 [1]: 0.29 nM | EC50 ([2]; GCGR EC50, pM (95% CI) 0% plasma, 0% plasma): 1.96 pM | EC50 ([2]; GCGR EC50, pM (95% CI) 100% plasma, 100% species-specific plasma): 103 pM | EC50 [3]: 12.6 pM | EC50 [4]: 0.00183 nM
Structure (SMILES): CC(C)C[C@H](NC(=O)[C@H](Cc1ccc(O)cc1)NC(=O)[C@H](CCCCN)NC(=O)[C@H](CO)NC(=O)[C@H](CC(C)C)NC(=O)[C@H](CC(=O)O)NC(=O)[C@H](CO)NC(=O)[C@@H](NC(=O)[C@H](Cc1ccccc1)NC(=O)[C@@H](NC(=O)CNC(=O)[C@H](CCC(N)=O)NC(=O)C(C)(C)NC(=O)[C@@H](N)Cc1c[nH]cn1)[C@@H](C)O)[C@@H](C)O)C(=O)N[C@@H](CCC(=O)O)C(=O)N[C@@H](CO)C(=O)N[C@@H](CCCCN)C(=O)N[C@@H](CCCNC(=N)N)C(=O)N[C@@H](C)C(=O)N[C@@H](CCCNC(=N)N)C(=O)N[C@@H](CCC(=O)O)C(=O)N[C@@H](Cc1ccccc1)C(=O)N[C@H](C(=O)N[C@@H](CCC(N)=O)C(=O)N[C@@H](Cc1c[nH]c2ccccc12)C(=O)N[C@@H](CC(C)C)C(=O)N[C@@H](CC(C)C)C(=O)N[C@@H](CCCCNC(=O)CC[C@H](NC(=O)CC[C@H](NC(=O)[C@H](CO)NC(=O)[C@H](CCC(=O)O)NC(=O)[C@H](CO)NC(=O)CC[C@H](NC(=O)CC[C@H](NC(=O)CCCCCCCCCCCCCCCCC(=O)O)C(=O)O)C(=O)O)C(=O)O)C(=O)O)C(=O)N[C@H](C(N)=O)[C@@H](C)O)C(C)C [NN1177] (H-H[Aib]QGTFTSDLSKYLESKRAREFVQWLLK([γGlu-γGlu-Ser-Glu-Ser-γGlu-γGlu-C18 diacid])T-NH2)
Weight loss ([5]; 3 nmol/kg each compound s.c. once daily): 20% | Cumulative food intake ([5]; 3 nmol/kg s.c. once daily): equal reduction

— article PMC8896685 (PLoS ONE, 2022)
